ChEMBL document CHEMBL1143652, “Joys of molecules. 2. Endeavors in chemical biology and medicinal chemistry” (J Med Chem, 2005)
Converted amounts (≈) assume the structure as drawn. Values belong to the molecule of their own block, whether it stands above or below them.

Legend:
MOLT-4 [1] = assay: Inhibitory concentration against MOLT-4 human T-cells; assay type: functional, cell-based
MOLT-4 [2] = assay: Inhibitory concentration against MOLT-4 human T-cells; 10e-12; assay type: functional, cell-based
Staphylococcus aureus = assay: Minimum inhibitory concentration against methicillin resistant Staphylococcus aureus (MRSA); assay type: functional
1A9 [3] = assay: Cytotoxicity against 1A9 human ovarian carcinoma cells; assay type: functional, cell-based
[4] = Antiproliferation activity against cancer cell lines by mixed-lymphocyte-reaction proliferation assay; assay type: functional, cell-based; details: Homo sapiens
[5] = In vitro cytotoxicity against leukemia P-388 tumor cells; assay type: functional, cell-based; details: Mus musculus, P388
1A9 [6] = assay: Inhibitory concentration against human 1A9 ovarian carcinoma cells; assay type: functional, cell-based
Protein kinase C (PKC) = assay: Inhibitory activity against protein kinase C; assay type: protein assay
[7] = molecular target: cAMP-dependent protein kinase (PKA) (Homo sapiens, UniProt P22694+P17612+P22612); assay: Inhibitory constant against the protein kinase A; assay type: protein assay
KB 3-1 [8] = assay: Cytotoxicity against KB-31 human epidermoid cancer cells; assay type: functional, cell-based
KB 3-1 [9] = assay: Cytotoxicity against KB3-1 human epidermoid cancer cells; assay type: functional, cell-based
Enterococcus faecium = assay: Minimum inhibitory concentration against vancomycin resistant Enterococcus faecium; assay type: functional
1A9 [10] = assay: Cytotoxicity against 1A9 ovarian cancer cells; assay type: functional, cell-based; details: Homo sapiens
[11] = molecular target: Polyunsaturated fatty acid 5-lipoxygenase (Homo sapiens) (UniProt P09917); assay: Inhibitory concentration against 5-lipoxygenase
Chain of Polyunsaturated fatty acid 5-lipoxygenase (Homo sapiens) (P09917 whole entry): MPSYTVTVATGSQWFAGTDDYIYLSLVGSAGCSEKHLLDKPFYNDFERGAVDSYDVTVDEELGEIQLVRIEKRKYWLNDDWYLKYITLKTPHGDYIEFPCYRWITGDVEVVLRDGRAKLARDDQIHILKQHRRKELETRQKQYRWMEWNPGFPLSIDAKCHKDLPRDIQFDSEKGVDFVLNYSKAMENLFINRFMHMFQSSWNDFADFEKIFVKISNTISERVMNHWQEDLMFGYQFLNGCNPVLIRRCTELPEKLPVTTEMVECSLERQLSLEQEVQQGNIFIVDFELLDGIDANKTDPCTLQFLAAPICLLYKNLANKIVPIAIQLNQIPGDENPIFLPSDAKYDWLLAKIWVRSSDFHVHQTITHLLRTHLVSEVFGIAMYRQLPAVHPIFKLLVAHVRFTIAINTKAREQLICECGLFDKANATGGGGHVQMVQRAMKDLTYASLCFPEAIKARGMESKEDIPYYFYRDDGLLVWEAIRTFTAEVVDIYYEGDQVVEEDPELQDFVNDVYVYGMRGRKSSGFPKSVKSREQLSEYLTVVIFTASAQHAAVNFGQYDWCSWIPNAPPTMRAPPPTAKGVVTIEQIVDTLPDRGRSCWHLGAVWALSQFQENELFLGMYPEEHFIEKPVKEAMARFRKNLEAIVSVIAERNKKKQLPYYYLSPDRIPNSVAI

- IC50 (MOLT-4 [1]): < 10 pM
- IC50 (MOLT-4 [2]): < 1 pM
Structure (SMILES): CCNC1COC(OC2C(O[C@H]3C#C/C=C\C#C[C@@](C)(O)C(=C/CSC(C)=O)/C3=C(\NC(=O)OC)C(C)=O)OC(C)C(NOC3CC(O)C(SC(=O)c4c(C)c(I)c(OC5OC(C)C(O)C(OC)C5O)c(OC)c4OC)C(C)O3)C2O)CC1OC (stereo partly drawn)

Structure (SMILES): CC1(C)C=Cc2cc(-c3ccco3)cc(/C=C(/C#N)c3ccc(O)cc3)c2O1
- MIC (Staphylococcus aureus): 2 µg/mL (≈ 5.41 µM)
- MIC (Staphylococcus aureus; Staphylococcus aureus, read-out: MIC): 2 µg/mL (≈ 5.41 µM)

Structure (SMILES): CC/C=C\C=C/C(=O)N/C=C/C[C@H]1C[C@H]2C[C@H](O)C[C@H](Cc3cccc(O)c3C(=O)O1)O2 [APICULAREN A]
- IC50 (1A9 [3]): 0.00078 µM

Structure (SMILES): CCCCCCCCCC[C@H]1C[C@H]1CCCC/C=C\CC[C@@H](O)C(=O)N[C@@H](CO[C@@H]1O[C@@H](CO)[C@@H](O)[C@H](O)[C@@H]1OCC=C(C)C)[C@H](O)CCCCCCC[C@@H]1C[C@@H]1CCCCCCCCCC
- IC50 [4]: > 50 µM

Structure (SMILES): COC(=O)[C@]1(O)C(=O)c2c(cc(C)c(Br)c2O)[C@H]2[C@@H](C(C)C)CC[C@]21C [HAMIGERAN A]
- IC50 [5]: 31.6 µM

Structure (SMILES): COC[C@@H](C[C@H]1O[C@@](O)([C@H](O)[C@@H]2C[C@H](OC)[C@@H](O)CC/C=C(C)/C=C/[C@@H](O[C@@H]3O[C@@H](C)[C@H](OC)[C@@H](O)[C@@H]3O)[C@H](C)/C=C(C)/C=C(C)/C=C(\C)C(=O)O2)[C@H](C)[C@@H](O)[C@H]1C)OC1C[C@](C)(O)[C@@H](O[C@H]2C[C@@H](OC)[C@H](O)[C@@H](C)O2)[C@H](C)O1 (stereo partly drawn) [APOPTOLIDIN]
- IC50 (1A9 [6]): 240 µM

- Ki (Protein kinase C (PKC)): 0.08 µM
- Ki [7]: 0.0034 µM
Structure (SMILES): O=C(N[C@@H]1CNCCC[C@H]1OC(=O)c1ccc(C(=O)c2c(O)cccc2C(=O)O)cc1)c1ccc(O)cc1

Structure (SMILES): CC(C)=CCCC1(C)C=Cc2c(O)c3c(c(CC=C(C)C)c2O1)O[C@]12C(=CC4C[C@H]1C(C)(C)OC2(CC=C(C)C)C4=O)C3=O (stereo partly drawn) [GAMBOGIN]
- IC50 (KB 3-1 [8]): 9.35 µM
- IC50 (KB 3-1 [9]): 9.35 µM

Structure (SMILES): CC1OC(OC2C(Oc3c4cc5cc3Oc3ccc(cc3Cl)[C@H](O)[C@H]3NC(=O)[C@@H](NC(=O)[C@H]5NC(=O)[C@@H](CC(N)=O)NC(=O)[C@@H](NC(=O)[C@@H](N)CO)[C@@H](O)c5ccc(c(Cl)c5)O4)c4ccc(O)c(c4)-c4c(O)cc(O)cc4[C@H](C(=O)NCC(=O)O)NC3=O)OC(CO)C(O)C2O)CC(C)(NCc2cccc(OCC/C=C\COc3cccc(CNC4(C)CC(OC5C(Oc6c7cc8cc6Oc6ccc(cc6Cl)[C@@H](O)[C@@H](NC(=O)[C@H](N)CO)C(=O)N[C@@H](CC(N)=O)C(=O)N[C@H]8C(=O)N[C@H]6C(=O)N[C@H](C(=O)N[C@H](C(=O)NCC(=O)O)c8cc(O)cc(O)c8-c8cc6ccc8O)[C@H](O)c6ccc(c(Cl)c6)O7)OC(CO)C(O)C5O)OC(C)C4O)c3)c2)C1O (stereo partly drawn)
- MIC (Enterococcus faecium): 0.25 µg/mL (≈ 0.0779 µM)

Structure (SMILES): CC(C)C[C@H]1NC(=O)[C@H](Cc2ccccc2)NC(=O)CNC(=O)[C@H](C)NC(=O)[C@H](Cc2ccc(O)cc2)NC(=O)/C=C\c2ccccc2OCOC1=O
- MIC (Enterococcus faecium): 0.25 µg/mL (≈ 0.343 µM)

Structure (SMILES): CC/C=C\C=C/C(=O)N/C=C\C[C@H]1C[C@H]2C[C@H](O)C[C@H](Cc3cccc(O)c3C(=O)O1)O2
- IC50 (1A9 [3]): 0.0707 µM

Structure (SMILES): CC(C)=CCc1c2c(c(O)c3c1O[C@]14C(=C[C@@H]5C[C@H]1C(C)(C)OC4(CC=C(C)C)C5=O)C3=O)C=CC(C)(C)O2
- IC50 (KB 3-1 [8]): 8.41 µM
- IC50 (KB 3-1 [9]): 8.41 µM

Structure (SMILES): Cc1cc2c(c(O)c1Br)C(=O)C(=O)[C@]1(C)CC[C@H](C(C)C)[C@H]21 [HAMIGERAN B]
- IC50 [5]: 13.5 µM

Structure (SMILES): CCCCCCCCCC[C@H]1C[C@H]1CCCC/C=C\CC[C@@H](O)C(=O)N[C@@H](CO[C@@H]1O[C@@H](CO)[C@@H](O)[C@H](O)[C@@H]1OC/C=C(\C)CCC=C(C)C)[C@H](O)CCCCCCC[C@@H]1C[C@@H]1CCCCCCCCCC
- IC50 [4]: 28 µM

Structure (SMILES): COC1=C(CC=C(C)C)[C@]2(OC(=O)C3=C[C@]4(OC)C[C@H]5C(C)(C)OC(CC=C(C)C)(C4=O)[C@]35O2)C(=O)C2=C1C=CC(C)(C)O2
- IC50 (1A9 [10]): 5 µM

Structure (SMILES): O=C(/C=C/c1cccs1)N/C=C/C[C@H]1C[C@H]2C[C@H](O)C[C@H](Cc3cccc(O)c3C(=O)O1)O2
- IC50 (1A9 [3]): 0.0413 µM

- IC50 (MOLT-4 [1]): 1.2 pM
- IC50 (MOLT-4 [2]): 1.2 pM
Structure (SMILES): COC(=O)N/C(C)=C1/C(=C/CSSSC)[C@@](O)(CC=O)C#C/C=C\C#C[C@@H]1O

Structure (SMILES): C=CCO[C@@H]1[C@H](OC[C@H](NC(=O)[C@H](O)CC/C=C\CCCC[C@@H]2C[C@@H]2CCCCCCCCCC)[C@H](O)CCCCCCC[C@@H]2C[C@@H]2CCCCCCCCCC)O[C@@H](CO)[C@@H](O)[C@@H]1O
- IC50 [4]: 7.1 µM

Structure (SMILES): CCCCCCCCCC[C@H]1C[C@H]1CCCC/C=C\CC[C@@H](O)C(=O)N[C@@H](CO[C@@H]1O[C@@H](CO)[C@@H](O)[C@H](O)[C@@H]1O)[C@@H](CCCCCCC[C@@H]1C[C@@H]1CCCCCCCCCC)OC=C(C)C
- IC50 [4]: 28 µM

- ID50 [11]: 44 µM
Structure (SMILES): CCCCC/C=C\C\C=C/C=C/C=C/[C@@H]1C[C@H]1CCCC(=O)O

Structure (SMILES): CC/C=C/C=C/C(=O)N/C=C/C[C@H](O)C[C@H]1C[C@H](OC(C)=O)C[C@H](Cc2cccc3c2C(=O)OC(C)(C)O3)O1
- IC50 (1A9 [3]): 0.035 µM

- IC50 (1A9 [6]): 3.6 µM
Structure (SMILES): COCn1c(Cl)c2c3c(cccc31)-c1cccc3c1OC[C@@]3(c1ccccc1)c1oc(C)nc1-c1nc(Cl)c-2o1
